Assay results: the NIST ThermoML archive (doi:10.1016/j.jct.2012.03.025)

Assay: mn = molality of the nth substance listed, in mol/kg
Conditions: 101 kPa, Liquid; for speed of sound: Sing-around technique in a fixed-path interferometer; for mass density: Vibrating tube method

CCCCn1cc[n+](C)c1.[Cl-] [1-butyl-3-methylimidazolium chloride] + O
Conditions	mass density, 288.15 K [kg/m3]	mass density, 293.15 K [kg/m3]	mass density, 298.15 K [kg/m3]	mass density, 303.15 K [kg/m3]	mass density, 308.15 K [kg/m3]	speed of sound, 288.15 K [m/s]	speed of sound, 293.15 K [m/s]	speed of sound, 298.15 K [m/s]	speed of sound, 303.15 K [m/s]	speed of sound, 308.15 K [m/s]
m1 = 0.0519	999.802	998.874	997.684	996.264	994.611	1474.6	1489.9	1503.6	1515.5	1525.8
m1 = 0.1011	1000.45	999.477	998.265	996.836	995.146	1482	1496.7	1509.9	1521.4	1531.3
m1 = 0.1548	1001.14	1000.16	998.918	997.452	995.754	1489.8	1504	1516.6	1527.7	1537.2
m1 = 0.2011	1001.77	1000.76	999.494	998.007	996.292	1496.5	1510.1	1522.3	1533	1542.3
m1 = 0.2583	1002.56	1001.52	1000.2	998.699	996.957	1504.3	1517.8	1529.2	1539.7	1548.4
m1 = 0.311	1003.25	1002.18	1000.86	999.317	997.577	1511.4	1524.5	1535.6	1545.6	1553.9
m1 = 0.3619	1003.98	1002.88	1001.53	999.989	998.169	1518.1	1531	1541.4	1551.3	1559.3
m1 = 0.4064	1004.59	1003.46	1002.09	1000.54	998.737	1524	1536.4	1546.8	1556.2	1563.9
m1 = 0.451	1005.23	1004.07	1002.67	1001.08	999.294	1530	1542.1	1551.6	1561	1568.4
m1 = 0.5069	1005.99	1004.8	1003.4	1001.79	999.991	1536.9	1549	1557.9	1567.1	1574

CCCCn1cc[n+](C)c1.O=S(=O)([O-])C(F)(F)F [1-butyl-3-methylimidazolium trifluoromethanesulfonate] + O
Conditions	mass density, 288.15 K [kg/m3]	mass density, 293.15 K [kg/m3]	mass density, 298.15 K [kg/m3]	mass density, 303.15 K [kg/m3]	mass density, 308.15 K [kg/m3]	speed of sound, 288.15 K [m/s]	speed of sound, 293.15 K [m/s]	speed of sound, 298.15 K [m/s]	speed of sound, 303.15 K [m/s]	speed of sound, 308.15 K [m/s]
m1 = 0.051	1002.68	1001.73	1000.53	999.089	997.44	1472.8	1488	1501.7	1513.5	1523.6
m1 = 0.1023	1006.18	1005.17	1003.9	1002.43	1000.76	1478.5	1493.2	1506.2	1517.4	1527
m1 = 0.1499	1009.37	1008.3	1007	1005.49	1003.78	1483.8	1497.9	1510.2	1520.8	1529.8
m1 = 0.1996	1012.64	1011.5	1010.17	1008.6	1006.87	1489.1	1502.4	1514.2	1524.5	1533
m1 = 0.2496	1015.85	1014.68	1013.28	1011.7	1009.91	1494.2	1507	1518.1	1527.6	1535.6
m1 = 0.3019	1019.2	1017.92	1016.52	1014.86	1013.02	1499.2	1511.3	1521.8	1530.8	1538.2
m1 = 0.3489	1022.13	1020.78	1019.36	1017.64	1015.77	1503.5	1515	1525	1533.5	1540.5
m1 = 0.4034	1025.46	1024.1	1022.57	1020.8	1018.88	1508.2	1519	1528.4	1536.3	1542.8
m1 = 0.4532	1028.45	1027.06	1025.5	1023.65	1021.69	1512.3	1522.7	1531.5	1538.9	1544.9
m1 = 0.5045	1031.5	1030.04	1028.46	1026.57	1024.5	1517	1526.9	1534.1	1541	1546.6

CCCCn1cc[n+](C)c1.[I-] [1-butyl-3-methylimidazolium iodide] + O
Conditions	mass density, 288.15 K [kg/m3]	mass density, 293.15 K [kg/m3]	mass density, 298.15 K [kg/m3]	mass density, 303.15 K [kg/m3]	mass density, 308.15 K [kg/m3]	speed of sound, 288.15 K [m/s]	speed of sound, 293.15 K [m/s]	speed of sound, 298.15 K [m/s]	speed of sound, 303.15 K [m/s]	speed of sound, 308.15 K [m/s]
m1 = 0.0514	1003.51	1002.58	1001.37	999.906	998.257	1471.2	1486.3	1500	1511.9	1522.2
m1 = 0.1017	1007.71	1006.74	1005.46	1003.96	1002.28	1475.6	1489.8	1503	1514.5	1524.4
m1 = 0.1497	1011.65	1010.64	1009.32	1007.76	1006.08	1479.5	1493.2	1505.8	1516.8	1526.2
m1 = 0.1995	1015.69	1014.61	1013.26	1011.7	1009.95	1483.3	1496.4	1508.5	1519.1	1528.1
m1 = 0.2522	1019.87	1018.75	1017.37	1015.77	1013.98	1487.2	1499.6	1511.4	1521.6	1530.1
m1 = 0.3025	1023.82	1022.63	1021.27	1019.6	1017.78	1491	1502.7	1514	1523.7	1531.9
m1 = 0.3477	1027.3	1026.08	1024.71	1023	1021.14	1494.2	1505.2	1516.1	1525.5	1533
m1 = 0.4036	1031.57	1030.23	1028.85	1027.14	1025.23	1498	1508.5	1519	1527.7	1534.9
m1 = 0.4508	1035.08	1033.71	1032.38	1030.58	1028.63	1501.1	1511.1	1521.1	1529.7	1536.2
m1 = 0.5032	1038.95	1037.5	1036.15	1034.41	1032.4	1504.9	1514.1	1523.7	1531.8	1537.6

CCCCn1cc[n+](C)c1.[Br-] [1-butyl-3-methylimidazolium bromide] + O
Conditions	mass density, 288.15 K [kg/m3]	mass density, 293.15 K [kg/m3]	mass density, 298.15 K [kg/m3]	mass density, 303.15 K [kg/m3]	mass density, 308.15 K [kg/m3]	speed of sound, 288.15 K [m/s]	speed of sound, 293.15 K [m/s]	speed of sound, 298.15 K [m/s]	speed of sound, 303.15 K [m/s]	speed of sound, 308.15 K [m/s]
m1 = 0.0513	1001.7	1000.78	999.601	998.177	996.522	1472.8	1488.1	1501.8	1513.7	1524
m1 = 0.1034	1004.29	1003.33	1002.13	1000.67	998.994	1478.8	1493.6	1506.8	1518.3	1528.2
m1 = 0.1531	1006.73	1005.72	1004.51	1003.02	1001.34	1484.5	1498.7	1511.5	1522.5	1532
m1 = 0.2012	1009.09	1008.05	1006.79	1005.29	1003.58	1489.6	1503.7	1516	1526.6	1535.7
m1 = 0.2499	1011.45	1010.37	1009.06	1007.54	1005.82	1494.9	1508.5	1520.4	1530.7	1539.3
m1 = 0.2995	1013.81	1012.7	1011.38	1009.81	1008.07	1500.4	1513.5	1524.9	1534.6	1543
m1 = 0.35	1016.21	1015.02	1013.64	1012.1	1010.34	1505.5	1518.3	1529.3	1538.7	1546.7
m1 = 0.4008	1018.58	1017.37	1015.96	1014.35	1012.6	1510.9	1523	1533.6	1542.6	1550.2
m1 = 0.4565	1021.19	1019.89	1018.45	1016.8	1015.05	1516.4	1528.1	1538.2	1546.8	1554
m1 = 0.5012	1023.28	1021.91	1020.5	1018.75	1017.01	1520.9	1532.2	1542	1550.2	1557.1
